Test results as given in patent US7879862B2, “Pyrazolo[1,5-alpha]pyrimidinyl derivatives useful as corticotropin-releasing factor (CRF) receptor antagonists” (SmithKline Beecham (Cork) Limited, priority 2004, dated 2011).

target: T1, human CRF receptors (Homo sapiens, UniProt P34998); experiment: CRF receptor binding activity (radioligand displacement, Example 25); details: not given
T1 construct: expressed in transfected cells
T1 sequence (P34998 24-415): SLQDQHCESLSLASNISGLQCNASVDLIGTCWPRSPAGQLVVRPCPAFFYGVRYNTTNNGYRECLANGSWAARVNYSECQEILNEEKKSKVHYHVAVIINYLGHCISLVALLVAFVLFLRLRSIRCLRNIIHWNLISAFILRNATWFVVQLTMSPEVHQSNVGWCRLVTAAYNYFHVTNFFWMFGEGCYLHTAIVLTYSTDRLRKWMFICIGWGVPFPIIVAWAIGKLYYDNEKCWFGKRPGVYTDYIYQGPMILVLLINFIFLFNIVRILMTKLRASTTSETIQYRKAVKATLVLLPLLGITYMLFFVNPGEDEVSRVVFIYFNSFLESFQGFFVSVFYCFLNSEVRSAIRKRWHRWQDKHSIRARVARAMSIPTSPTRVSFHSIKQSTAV
Source text: The effectiveness of a compound as a CRF receptor antagonist may be determined by various assay methods. […] CRF receptor affinity may be determined by binding studies that measure the ability of a compound to inhibit the binding of a radiolabeled CRF (e.g., [^125I]tyrosine-CFR) to its receptor (e.g., receptors prepared from rat cerebral cortex membranes). The radioligand binding assay described by DeSouza et al. (supra, 1987) provides an assay for determining a compound's affinity for the CRF receptor.
[formula] where L=radioligand and KD=affinity of radioligand for receptor (Cheng and Prusoff, Biochem. Pharmacol. 22:3099, 1973).
By utilizing radiolabeled CRF ligands, the assay may be used to evaluate the binding activity of the compounds of the present invention with any CRF receptor subtype.
Briefly, the binding assay involves the displacement of a radiolabeled CRF ligand from the CRF receptor. More specifically, the binding assay is performed in 96-well assay plates using 1-10 μg cell membranes from cells stably transfected with human CRF receptors. […] The mixture is incubated for 2 hours at 22° C. followed by separation of the bound and free radioligand by rapid filtration over glass fiber filters. Following three washes, the filters are dried and radioactivity (Auger electrons from ^125I) is counted using a scintillation counter. All radioligand binding data may be analyzed using the non-linear least-squares curve-fitting programs Prism (GraphPad Software Inc) or XLfit (ID Business Solutions Ltd).

Ki [µM] | SMILES
< 0.1 | COc1ccc(-c2c(C)nn3c(NCc4nc(C)no4)cc(C)nc23)c(C)c1 [Example 11-6, [3-(4-Methoxy-2-methyl-phenyl)-2,5-dimethyl-pyrazolo[1,5-a]pyrimidin-7-yl]-(3-methyl-[1,2,4]oxadiazol-5-ylmethyl)-amine]
< 0.1 | COc1ccc(-c2c(C)nn3c(N[C@H](C)Cc4nc(C)no4)cc(C)nc23)c(C)c1 [Example 11-10, [3-(4-Methoxy-2-methyl-phenyl)-2,5-dimethyl-pyrazolo[1,5-a]pyrimidin-7-yl]-[(R)-1-methyl-2-(3-methyl-[1,2,4]oxadiazol-5-yl)-ethyl]-amine]
< 0.1 | CCC(Nc1cc(C)nc2c(-c3ccc(OC)cc3OC)c(C)nn12)c1nc(C)no1 (stereo not shown) [Example 11-20, [3-(2,4-Dimethoxy-phenyl)-2,5-dimethyl-pyrazolo[1,5-a]pyrimidin-7-yl]-[1-(3-methyl-[1,2,4]oxadiazol-5-yl)-propyl]-amine]
< 0.1 | COc1ccc(-c2c(C)nn3c(NC(C)Cc4nc(C)no4)cc(C)nc23)c(C)c1 (stereo not shown) [Example 12-1, [3-(4-Methoxy-2-methyl-phenyl)-2,5-dimethyl-pyrazolo[1,5-a]pyrimidin-7-yl]-[1-methyl-2-(3-methyl-[1,2,4]oxadiazol-5-yl)-ethyl]-amine]

same assay, conditions: displacement of [125I] tyrosine-sauvagine from membranes of cells stably transfected with human CRF receptors; less than 0.10 μM (i.e., 100 nM); read-out: Ki (CRF receptor binding affinity)

SMILES | Ki [µM]
CCC(Nc1cc(C)nc2c(-c3ccc(OC)cc3C)c(C)nn12)c1nc(C2CC2)no1 (stereo not shown) [Example 11-1, [1-(3-Cyclopropyl-[1,2,4]oxadiazol-5-yl)-propyl]-[3-(4-methoxy-2-methyl-phenyl)-2,5-dimethyl-pyrazolo[1,5-a]pyrimidin-7-yl]-amine] | < 0.1
COc1ccc(-c2c(C)nn3c(NC(Cc4ccccc4)c4nc(C)no4)cc(C)nc23)c(C)c1 (stereo not shown) [Example 11-3, [3-(4-Methoxy-2-methyl-phenyl)-2,5-dimethyl-pyrazolo[1,5-a]pyrimidin-7-yl]-[1-(3-methyl-[1,2,4]oxadiazol-5-yl)-2-phenyl-ethyl]-amine] | < 0.1
CCC(Nc1cc(C)nc2c(-c3ccc(OC)cc3C)c(C)nn12)c1nc(C(C)C)no1 (stereo not shown) [Example 11-4, [1-(3-Isopropyl-[1,2,4]oxadiazol-5-yl)-propyl]-[3-(4-methoxy-2-methyl-phenyl)-2,5-dimethyl-pyrazolo[1,5-a]pyrimidin-7-yl]-amine] | < 0.1
CCCC(Nc1cc(C)nc2c(-c3ccc(OC)cc3C)c(C)nn12)c1nc(C)no1 (stereo not shown) [Example 11-5, [3-(4-Methoxy-2-methyl-phenyl)-2,5-dimethyl-pyrazolo[1,5-a]pyrimidin-7-yl]-[1-(3-methyl-[1,2,4]oxadiazol-5-yl)-butyl]-amine] | < 0.1
COc1ccc(-c2c(C)nn3c(N[C@H](C)Cc4nc(C5CC5)no4)cc(C)nc23)c(C)c1 [Example 11-9, [2-(3-Cyclopropyl-[1,2,4]oxadiazol-5-yl)-(R)-1-methyl-ethyl]-[3-(4-methoxy-2-methyl-phenyl)-2,5-dimethyl-pyrazolo[1,5-a]pyrimidin-7-yl]-amine] | < 0.1
CCC(Nc1cc(C)nc2c(-c3ccc(OC)cc3C)c(C)nn12)c1nc(C(F)(F)F)no1 (stereo not shown) [Example 11-11, [3-(4-Methoxy-2-methyl-phenyl)-2,5-dimethyl-pyrazolo[1,5-a]pyrimidin-7-yl]-[1-(3-trifluoromethyl-[1,2,4]oxadiazol-5-yl)-propyl]-amine] | < 0.1
CCc1noc(C[C@@H](C)Nc2cc(C)nc3c(-c4ccc(OC)cc4C)c(C)nn23)n1 [Example 11-17, [2-(3-Ethyl-[1,2,4]oxadiazol-5-yl)-(R)-1-methyl-ethyl]-[3-(4-methoxy-2-methyl-phenyl)-2,5-dimethyl-pyrazolo[1,5-a]pyrimidin-7-yl]-amine] | < 0.1
Cc1cc(N[C@H](CC(C)C)c2nc(C)no2)n2nc(C)c(-c3cnc(N(C)C)cc3C)c2n1 [Example 11-18, [3-(6-Dimethylamino-4-methyl-pyridin-3-yl)-2,5-dimethyl-pyrazolo[1,5-a]pyrimidin-7-yl]-[3-methyl-(R)-1-(3-methyl-[1,2,4]oxadiazol-5-yl)-butyl]-amine] | < 0.1
COc1ccc(-c2c(C)nn3c(NC(CC(C)C)c4nc(C)no4)cc(C)nc23)c(OC)c1 (stereo not shown) [Example 11-23, [3-(2,4-Dimethoxy-phenyl)-2,5-dimethyl-pyrazolo[1,5-a]pyrimidin-7-yl]-[3-methyl-1-(3-methyl-[1,2,4]oxadiazol-5-yl)-butyl]-amine] | < 0.1
COc1ccc(-c2c(C)nn3c(N(Cc4ccccc4)Cc4nc(C)no4)cc(C)nc23)c(C)c1 [Example 12-2, Benzyl-[3-(4-methoxy-2-methyl-phenyl)-2,5-dimethyl-pyrazolo[1,5-a]pyrimidin-7-yl]-(3-methyl-[1,2,4]oxadiazol-5-ylmethyl)-amine] | < 0.1
COc1ccc(-c2c(C)nn3c(NC(Cc4nc(C)no4)C(F)(F)F)cc(C)nc23)c(C)c1 (stereo not shown) [Example 12-3, [3-(4-Methoxy-2-methyl-phenyl)-2,5-dimethyl-pyrazolo[1,5-a]pyrimidin-7-yl]-[2,2,2-trifluoro-1-(3-methyl-[1,2,4]oxadiazol-5-ylmethyl)-ethyl]-amine] | < 0.1
COc1ccc(-c2c(C)nn3c(NC(C)Cc4nc(C5CC5)no4)cc(C)nc23)c(C)c1 (stereo not shown) [Example 12-4, [2-(3-Cyclopropyl-[1,2,4]oxadiazol-5-yl)-1-methyl-ethyl]-[3-(4-methoxy-2-methyl-phenyl)-2,5-dimethyl-pyrazolo[1,5-a]pyrimidin-7-yl]-amine] | < 0.1

The next lines start with the values.

Ki [µM] | SMILES
< 0.1 | COc1ccc(-c2c(C)nn3c(NC(C)Cc4nc(C(C)C)no4)cc(C)nc23)c(C)c1 (stereo not shown) [Example 12-5, [2-(3-Isopropyl-[1,2,4]oxadiazol-5-yl)-1-methyl-ethyl]-[3-(4-methoxy-2-methyl-phenyl)-2,5-dimethyl-pyrazolo[1,5-a]pyrimidin-7-yl]-amine]
< 0.1 | CCC(Cc1nc(C)no1)Nc1cc(C)nc2c(-c3ccc(OC)cc3C)c(C)nn12 (stereo not shown) [Example 12-9, [3-(4-Methoxy-2-methyl-phenyl)-2,5-dimethyl-pyrazolo[1,5-a]pyrimidin-7-yl]-[1-(3-methyl-[1,2,4]oxadiazol-5-ylmethyl)-propyl]-amine]
< 0.1 | CCC(Cc1nc(C2CC2)no1)Nc1cc(C)nc2c(-c3ccc(OC)cc3OC)c(C)nn12 (stereo not shown) [Example 12-10, [1-(3-Cyclopropyl-[1,2,4]oxadiazol-5-ylmethyl)-propyl]-[3-(2,4-dimethoxy-phenyl)-2,5-dimethyl-pyrazolo[1,5-a]pyrimidin-7-yl]-amine]
< 0.1 | CCC(Cc1nc(C)no1)Nc1cc(C)nc2c(-c3ccc(OC)cc3OC)c(C)nn12 (stereo not shown) [Example 12-11, [3-(2,4-Dimethoxy-phenyl)-2,5-dimethyl-pyrazolo[1,5-a]pyrimidin-7-yl]-[1-(3-methyl-[1,2,4]oxadiazol-5-ylmethyl)-propyl]-amine]
< 0.1 | CCC[C@H](Nc1cc(C)nc2c(-c3ccc(OC)cc3C)c(C)nn12)c1nc(C)no1 [Example 13-1, [3-(4-Methoxy-2-methyl-phenyl)-2,5-dimethyl-pyrazolo[1,5-a]pyrimidin-7-yl]-[(S)-1-(3-methyl-[1,2,4]oxadiazol-5-yl)-butyl]-amine]
< 0.1 | COc1ccc(-c2c(C)nn3c(N[C@@H](Cc4nc(C)no4)C(F)(F)F)cc(C)nc23)c(C)c1 [Example 13-2, [3-(4-Methoxy-2-methyl-phenyl)-2,5-dimethyl-pyrazolo[1,5-a]pyrimidin-7-yl]-[2,2,2-trifluoro-(S)-1-(3-methyl-[1,2,4]oxadiazol-5-ylmethyl)-ethyl]-amine]
< 0.1 | COc1ccc(-c2c(C)nn3c(NC(C)Cc4nc(C(F)(F)F)no4)cc(C)nc23)c(C)c1 (stereo not shown) [Example 13-3, [3-(4-Methoxy-2-methyl-phenyl)-2,5-dimethyl-pyrazolo[1,5-a]pyrimidin-7-yl]-[1-methyl-2-(3-trifluoromethyl-[1,2,4]oxadiazol-5-yl)-ethyl]-amine]
< 0.1 | COc1ccc(-c2c(C)nn3c(N[C@@H](Cc4nc(C)no4)C(F)(F)F)cc(C)nc23)c(Cl)c1 [Example 13-4, [3-(2-Chloro-4-methoxy-phenyl)-2,5-dimethyl-pyrazolo[1,5-a]pyrimidin-7-yl]-[2,2,2-trifluoro-(S)-1-(3-methyl-[1,2,4]oxadiazol-5-ylmethyl)-ethyl]-amine]
< 0.1 | COc1ccc(-c2c(C)nn3c(N[C@H](C)Cc4nc(C(F)(F)F)no4)cc(C)nc23)c(C)c1 [Example 13-5, [3-(4-Methoxy-2-methyl-phenyl)-2,5-dimethyl-pyrazolo[1,5-a]pyrimidin-7-yl]-[(R)-1-methyl-2-(3-trifluoromethyl-[1,2,4]oxadiazol-5-yl)-ethyl]-amine]
